tested on: genotype 1b stable HCV replicon in Huh-7-derived cells; assay: Stable subgenomic HCV replicon EC50, genotype 1b (Renilla luciferase); assay type: cell-based; conditions: Hepatitis C virus, stable replicon genotype 1b, 72 h, read-out: EC50 1B RLUC
Method: Antiviral potency (EC50) was determined in both stable subgenomic HCV replicon cell lines and transient-transfected HCV replicon cells. The term half maximal effective concentration (EC50) refers to the concentration of a drug which induces a response halfway between the baseline and maximum after the exposure time specified below.
Stable subgenomic HCV replicons for genotype 1a, 1 b, 2a, 3a, and 4a were established in Huh-7-derived cells as described by Lohmann et al (Lohmann V, Korner F, Koch J, et al Replication of subgenomic hepatitis C virus RNAs in a hepatoma cell line. Science 1999; 285:119-3). Each stable cell line contains a bicistronic HCV replicon that encodes a humanized Renilla luciferase (hRLuc) reporter gene fused to a selectable neomycin-resistance gene, followed by an EMCV IRES and the NS3-NS5B coding region of HCV. […] Luciferase activity was measured as a marker for intracellular HCV replication levels.
The genotype 1a stable replicon was derived from the H77 HCV strain and contained adaptive mutations P1496L and S2204I. The genotype 1 b stable replicon was derived from the Cont HCV strain and contained adaptive mutations E1202G, T1280I, and K1846T. […] The genotype 3a stable replicon was derived from the S52 HCV strain and contained adaptive mutations P1121 L, A1198T and S2210I (equivalent to S2204I in genotype 1). The genotype 4a stable replicon was derived from the ED43 HCV strain and contained adaptive mutations Q1691R and S2204I. All replicon cell lines were propagated in Huh-7-derived cells and maintained in Dulbecco's modified Eagle's Medium (DMEM) supplemented with 10% fetal bovine serum (FBS) and 0.5 mg/mL G418.
To perform EC50 assays, cells from each HCV replicon were dispensed into 384-well plates. Compounds were dissolved in DMSO at a concentration of 10 mM and diluted in DMSO using an automated pipetting instrument. Three-fold serially diluted compounds were directly added to the cells using an automated instrument. […] Seventy-two hours later, cells were lysed and Renilla luciferase activity were quantified as recommended by the manufacturer (Promega-Madison, Wis.). Non-linear regression was performed to calculate EC50 values.

Q: Which EC50 does the source give for `CC[C@@H]1[C@@H]2CN(C(=O)[C@H](C(C)(C)C)NC(=O)O[C@]3(C)CCC[C@H]3CCCCCc3nc4ccc(OC)cc4nc3O2)[C@@H]1C(=O)N[C@]1(C(=O)NS(=O)(=O)C2(C)CC2)C[C@H]1CC(F)F` [Example 41, (3aR,7S,10S,11S,12R,24aR)-7-tert-butyl-N-[(1R,2S)-2-(2,2-difluoroethyl)-1-{[(1-methylcyclopropyl)sulfonyl]carbamoyl}cyclopropyl]-11-ethyl-16-methoxy-3a-methyl-5,8-dioxo-1,2,3,3a,5,6,7,8,11,12,20,21,22,23,24,24a-hexadecahydro-10H-9,12-methanocyclopenta[18,19][1,10,3,6]dioxadiazacyclononadecino[11,12-b]quinoxaline-10-carboxamide] here?
A: 142 nM

Q: How did the EC50 turn out when `CC[C@@H]1[C@@H]2CN(C(=O)[C@H](C(C)(C)C)NC(=O)O[C@@H]3C[C@H]3CC/C=C/C(F)(F)C3Nc4ccc(C#N)cc4N=C3O2)[C@@H]1C(=O)N[C@]1(C(=O)NS(=O)(=O)C2(C)CC2)C[C@H]1C(F)F` (stereo partly drawn) [Example 78, (1aR,5S,8S,9S,10R,19E,22aR)-5-tert-butyl-14-cyano-N-[(1R,2R)-2-(difluoromethyl)-1-{[(1-methylcyclopropyl)sulfonyl]carbamoyl}cyclopropyl]-9-ethyl-18,18-difluoro-3,6-dioxo-1,1a,3,4,5,6,9,10,17,17a,18,21,22,22a-tetradecahydro-8H-7,10-methanocyclopropa[18,19][1,10,3,6]dioxadiazacyclononadecino[11,12-b]quinoxaline-8-carboxamide] was run?
A: 394 nM

Q: With `C[C@@H]1[C@@H]2CN(C(=O)[C@H](C(C)(C)C)NC(=O)O[C@@H]3C[C@H]3CCCCC(F)(F)c3nc4ccc(Cl)cc4nc3O2)[C@@H]1C(=O)N[C@]1(C(=O)NS(=O)(=O)C2(C)CC2)C[C@H]1C(F)F` [Example 88, (1aR,5S,8S,9S,10R,22aR)-5-tert-butyl-14-chloro-N-[(1R,2R)-2-(difluoromethyl)-1-{[(1-methylcyclopropyl)sulfonyl]carbamoyl}cyclopropyl]-18,18-difluoro-9-methyl-3,6-dioxo-1,1a,3,4,5,6,9,10,18,19,20,21,22,22a-tetradecahydro-8H-7,10-methanocyclopropa[18,19][1,10,3,6]dioxadiazacyclononadecino[11,12-b]quinoxaline-8-carboxamide] as the compound, how does the EC50 read?
A: 4.6 nM

Q: How did the EC50 turn out when `COc1ccc2nc3c(nc2c1)O[C@H]1CN(C(=O)[C@H](C(C)(C)C)NC(=O)O[C@@H]2C[C@H]2CCCCC3F)[C@H](C(=O)N[C@]2(C(=O)NS(=O)(=O)C3(C)CC3)C[C@H]2C(F)F)[C@@H]1C` (stereo partly drawn) [Example 47, (1aR,5S,8S,9S,10R,22aR)-5-tert-butyl-N-[(1R,2R)-2-(difluoromethyl)-1-{[(1-methylcyclopropyl)sulfonyl]carbamoyl}cyclopropyl]-18-fluoro-14-methoxy-9-methyl-3,6-dioxo-1,1a,3,4,5,6,9,10,18,19,20,21,22,22a-tetradecahydro-8H-7,10-methanocyclopropa[18,19][1,10,3,6]dioxadiazacyclononadecino[11,12-b]quinoxaline-8-carboxamide] was run?
A: 3.6 nM

— US20150175655A1 (priority 2012, published 2015)
